Tests used:
[1] = molecular target: Chymotrypsinogen A (Bos taurus) (UniProt P00766); assay: Tested for inhibition of Chymotrypsinogen from bovine
[2] = molecular target: Chymotrypsinogen A (Bos taurus) (UniProt P00766); assay: as above; remark: listed apart in the source

SMILES	IC50 [1] [µM]	IC50 [2] [µM]
CC(C)OC(=O)[C@H](O)[C@H](CC1CCCCC1)NC(=O)[C@H](Cc1c[nH]cn1)NC(=O)[C@@H](CC(=O)N1CCOCC1)Cc1cccc2ccccc12 [4-Cyclohexyl-2-hydroxy-3-[3-(1H-imidazol-4-yl)-2-(4-morpholin-4-yl-2-naphthalen-1-ylmethyl-4-oxo-butyrylamino)-propionylamino]-butyric acid isopropyl ester]	> 100	–
CC(C)CC(=O)N[C@H](C(=O)N[C@H](C(=O)N[C@@H](CC(C)C)[C@@H](O)CC(=O)N[C@@H](C)C(=O)N[C@@H](CC(C)C)[C@@H](O)CC(=O)O)C(C)C)C(C)C [PEPSTATIN]	–	> 100

— BindingDB's records for doi:10.1021/jm00172a005 (Kissei Pharmaceutical, 1990)
